Test results published in US10494366B2, “Pesticidally active amide heterocyclic derivatives with sulphur containing substituents” (Syngenta Participations AG, priority 2014, dated 2019).

Columns and labels:
[1] = tested on: Euschistus heros (neotropical brown stink bug); assay: Example B6: Euschistus heros, sprayed soybean leaf; format: in vivo; settings: 120 h, application rate 200 ppm, N-2 nymphs, 5 days after infestation
Text: Soybean leaf on agar in 24-well microtiter plates were sprayed with aqueous test solutions prepared from 10,000 ppm DMSO stock solutions. After drying the leaf were infested with N-2 nymphs.

[2] = tested on: Plutella xylostella (diamond back moth); assay: Example B3: Plutella xylostella, treated artificial diet; format: in vivo; settings: 120 h, application rate 200 ppm, L2 larvae, 5 days after infestation, read-out: effect in at least one of the two categories (mortality or growth inhibition)
Procedure: (§1) 24-well microtiter plates with artificial diet were treated with aqueous test solutions prepared from 10,000 ppm DMSO stock solutions by pipetting. After drying, the plates were infested with L2 larvae (10 to 15 per well). The samples were assessed for mortality and growth inhibition in comparison to untreated samples 5 days after infestation.

[3] = tested on: Tetranychus urticae (two-spotted spider mite); assay: Example B8: Tetranychus urticae, sprayed bean leaf discs; format: in vivo; settings: foliar, 192 h, application rate 200 ppm, mixed population (mobile stages), 8 days after infestation
Text: Bean leaf discs on agar in 24-well microtiter plates were sprayed with aqueous test solutions prepared from 10,000 ppm DMSO stock solutions. After drying the leaf discs were infested with a mite population of mixed ages.

[4] = tested on: Diabrotica balteata (corn root worm); assay: Example B4: Diabrotica balteata, sprayed maize sprouts; format: in vivo; settings: 96 h, application rate 200 ppm, L2 larvae, 4 days after infestation, read-out: effect in at least one of the two categories (mortality or growth inhibition)
Procedure: as §1, with “Maize sprouts, placed on an agar layer in 24-well” for “24-well”, “plates” for “plates with artificial diet”, “spraying.” for “pipetting.”, “(6” for “(10”, “10” for “15”, “4” for “5”

[5] = tested on: Myzus persicae (green peach aphid); assay: Example B5: Myzus persicae, sprayed sunflower leaf discs; format: in vivo; settings: foliar, 144 h, application rate 200 ppm, aphid population of mixed ages, 6 days after infestation
Procedure: Sunflower leaf discs were placed on agar in a 24-well microtiter plate and sprayed with aqueous test solutions prepared from 10,000 ppm DMSO stock solutions. After drying, the leaf discs were infested with an aphid population of mixed ages. The samples were assessed for mortality 6 days after infestation.

[6] = tested on: Spodoptera littoralis (Egyptian cotton leaf worm); assay: Example B1: Spodoptera littoralis, sprayed cotton leaf discs; format: in vivo; settings: foliar, 72 h, application rate 200 ppm, L1 larvae, 3 days after infestation, read-out: control in at least one of the three categories (mortality, anti-feedancy or growth inhibition)
Procedure: Cotton leaf discs were placed on agar in 24-well microtiter plates and sprayed with aqueous test solutions prepared from 10,000 ppm DMSO stock solutions. After drying the leaf discs were infested with five L1 larvae. The samples were assessed for mortality, anti-feedant effect, and growth inhibition in comparison to untreated samples 3 days after infestation. Control of Spodoptera littoralis by a test sample is when at least one of mortality, anti-feedant effect, and growth inhibition is higher than the untreated sample.

[7] = tested on: Spodoptera littoralis (Egyptian cotton leaf worm); assay: Example B2: Spodoptera littoralis, systemic test via lettuce roots in agar; format: in vivo; settings: 144 h, application rate 12.5 ppm, Spodoptera eggs, 6 days after infestation, read-out: control in at least one of the three categories (mortality, anti-feedancy or growth inhibition)
Text: Test compounds were applied by pipette from 10,000 ppm DMSO stock solutions into 24-well plates and mixed with agar. Lettuce seeds were placed on the agar and the multi well plate was closed by another plate which contains also agar. After 7 days the roots have absorbed the compound and the lettuce has grown into the lid plate. The lettuce leafs were now cut off into the lid plate. Spodoptera eggs were pipetted through a plastic stencil on a humid gel blotting paper and the plate closed with it. The samples were assessed for mortality, anti-feedant effect and growth inhibition in comparison to untreated samples 6 days after infestation.
The following compounds gave an effect of at least 80% control in at least one of the three categories (mortality, anti-feedancy or growth inhibition) at an application rate of 12.5 ppm: P2, P3, P8, P9, P11 and P17, P19, P20, P22, P23, P25, P26, P28, P30, P31, P32, P33, P40, P42, P43, P44, P45, P46, P47, P48, P49, P50, P51, P52, P53, P54, P60 and P61.

[8] = tested on: Myzus persicae (green peach aphid); assay: Example B7: Myzus persicae, systemic test with roots of pea seedlings in test solution; format: in vivo; settings: 144 h, test rate 24 ppm, aphid population of mixed ages, 6 days
Text: Roots of pea seedlings infested with an aphid population of mixed ages were placed directly in the aqueous test solutions prepared from 10,000 DMSO stock solutions.

[9] = tested on: Bemisia tabaci (cotton white fly); assay: Example B10: Bemisia tabaci, sprayed cotton leaf discs; format: in vivo; settings: foliar, 144 h, application rate 200 ppm, adult white flies, 6 days after incubation
Procedure: Cotton leaf discs were placed on agar in 24-well microtiter plates and sprayed with aqueous test solutions prepared from 10,000 ppm DMSO stock solutions. After drying the leaf discs were infested with adult white flies. The samples were checked for mortality 6 days after incubation.

Row | SMILES | melting point [°C] | mortality at 200 ppm [1] [%] | percent effect (mortality or growth inhibition) at 200 ppm [2] [%] | mortality at 200 ppm [3] [%] | percent effect (mortality or growth inhibition) at 200 ppm [4] [%] | mortality at 200 ppm [5] [%] | percent control (mortality, anti-feedant effect or growth inhibition) at 200 ppm [6] [%] | percent control (mortality, anti-feedant effect or growth inhibition) at 12.5 ppm [7] [%] | mortality at 24 ppm [8] [%] | mortality at 200 ppm [9] [%]
1 | CCSc1cc(-c2ccc(Cl)cc2)cnc1C(=O)/N=c1\sc(C(F)(F)F)nn1C | 147 to 148 | – | – | – | – | – | – | – | – | –
2 | CCSc1cc(-n2ccc(C(F)(F)F)n2)cnc1C(=O)/N=c1\sc(C(F)(F)C(F)(F)F)nn1C | 219 to 221 | – | – | – | – | – | – | – | – | –
3 | CCSc1cc(-c2ccc(C(F)(F)F)cc2)cnc1C(=O)/N=c1\sc(C(F)(F)C(F)(F)F)nn1C | 173 to 175 | – | – | – | – | – | – | – | – | –
4 | CCS(=O)(=O)c1cc(-c2ccc(C(F)(F)F)cc2)ccc1C(=O)/N=c1\sc(C(F)(F)F)nn1C | 140 to 142 | – | – | – | – | – | – | – | – | –
5 | CCS(=O)(=O)c1cc(-c2cccc(Cl)c2)cnc1C(=O)/N=c1\sc(C(F)(F)F)nn1C | 184 to 186 | – | – | – | – | – | – | – | – | –
6 | CCS(=O)(=O)c1cc(-c2ccc(C(F)(F)F)cc2)cnc1C(=O)/N=c1\sc(C(F)(F)C(F)(F)F)nn1C [Compound P8] | – | ≥ 80 | ≥ 80 | ≥ 80 | ≥ 80 | ≥ 80 | ≥ 80 | ≥ 80 | – | –
7 | CCS(=O)(=O)c1cc(-c2ncccn2)cnc1C(=O)/N=c1\ccc(SC(F)(F)F)cn1C [Compound P17, (N)-3-ethylsulfonyl-N-[1-methyl-5-(trifluoromethylsulfanyl)-2-pyridylidene]-5-pyrimidin-2-yl-pyridine-2-carboxamide] | – | ≥ 80 | ≥ 80 | – | ≥ 80 | ≥ 80 | ≥ 80 | ≥ 80 | ≥ 80 | –
8 | CCS(=O)(=O)c1cc(C2(C#N)CC2)cnc1C(=O)/N=c1\sc(C(F)(F)F)nn1C [Compound P19] | – | ≥ 80 | ≥ 80 | – | ≥ 80 | ≥ 80 | ≥ 80 | ≥ 80 | – | –
9 | CCS(=O)(=O)c1cc(C2(C#N)CC2)cnc1C(=O)/N=c1\sc(C(F)(F)C(F)(F)F)nn1C [Compound P20, (N)-5-(1-cyanocyclopropyl)-3-ethylsulfonyl-N-[3-methyl-5-(1,1,2,2,2-pentafluoroethyl)-1,3,4-thiadiazol-2-ylidene]pyridine-2-carboxamide] | – | ≥ 80 | ≥ 80 | – | ≥ 80 | ≥ 80 | ≥ 80 | ≥ 80 | – | ≥ 80
10 | CCS(=O)(=O)c1cc(-c2cccc3c2OC(F)(F)O3)cnc1C(=O)/N=c1\sc(C(F)(F)F)nn1C [Compound P29] | – | ≥ 80 | ≥ 80 | ≥ 80 | ≥ 80 | – | ≥ 80 | – | – | –
11 | CCS(=O)(=O)c1cc(-c2cccc(OC(F)(F)F)c2)cnc1C(=O)/N=c1\sc(C(F)(F)F)nn1C [Compound P31] | – | – | ≥ 80 | ≥ 80 | ≥ 80 | – | ≥ 80 | ≥ 80 | – | –
12 | CCS(=O)(=O)c1cc(-c2cncs2)cnc1C(=O)/N=c1\sc(C(F)(F)F)nn1C [Compound P39] | – | – | – | – | ≥ 80 | – | ≥ 80 | – | – | ≥ 80
13 | CCS(=O)(=O)c1cc(-c2nccc(C(F)(F)F)n2)cnc1C(=O)/N=c1\sc(C(F)(F)F)nn1C [Compound P40] | – | ≥ 80 | ≥ 80 | – | ≥ 80 | ≥ 80 | ≥ 80 | ≥ 80 | – | –
14 | CCS(=O)(=O)c1cc(-c2ncccn2)cnc1C(=O)/N=c1\sc(C(F)(F)F)nn1C [Compound P42] | – | ≥ 80 | ≥ 80 | – | ≥ 80 | ≥ 80 | ≥ 80 | ≥ 80 | ≥ 80 | –
15 | CCS(=O)(=O)c1cc(-c2ccc(Cl)c(Cl)n2)cnc1C(=O)/N=c1\sc(C(F)(F)F)nn1C [Compound P45] | – | ≥ 80 | ≥ 80 | ≥ 80 | ≥ 80 | ≥ 80 | ≥ 80 | ≥ 80 | – | –
16 | CCS(=O)(=O)c1cc(-c2ncc(Cl)cc2Cl)cnc1C(=O)/N=c1\sc(C(F)(F)F)nn1C [Compound P46] | – | ≥ 80 | ≥ 80 | – | ≥ 80 | ≥ 80 | ≥ 80 | ≥ 80 | – | –
17 | CCS(=O)(=O)c1cc(-c2ccccn2)cnc1C(=O)/N=c1\sc(C(F)(F)F)nn1C [Compound P51] | – | ≥ 80 | ≥ 80 | – | ≥ 80 | ≥ 80 | ≥ 80 | ≥ 80 | – | –
18 | CCS(=O)(=O)c1cc(-c2ccnc(F)c2)cnc1C(=O)/N=c1\sc(C(F)(F)F)nn1C [Compound P54] | – | ≥ 80 | ≥ 80 | – | ≥ 80 | ≥ 80 | ≥ 80 | ≥ 80 | – | –
19 | CCS(=O)(=O)c1cc(-c2ncc(Cl)s2)cnc1C(=O)/N=c1\sc(C(F)(F)F)nn1C [Compound P57] | – | – | ≥ 80 | – | ≥ 80 | – | ≥ 80 | – | – | ≥ 80
20 | CCS(=O)(=O)c1cc(C2CC2)cnc1C(=O)/N=c1\sc(C(F)(F)F)nn1C [Compound P63] | – | ≥ 80 | ≥ 80 | – | ≥ 80 | ≥ 80 | ≥ 80 | – | ≥ 80 | –
21 | CCS(=O)(=O)c1cc(-c2cc(C(F)(F)F)ccn2)cnc1C(=O)/N=c1\sc(C(F)(F)F)nn1C [Compound P70] | – | – | ≥ 80 | ≥ 80 | ≥ 80 | – | ≥ 80 | – | – | –
